# Source: US9718787B2, “Poly (ADP-ribose) polymerase inhibitor” (CHENGDU DI'AO PHARMACEUTICAL GROUP CO., LTD., priority 2011, dated 2017)
# Assays:
# [1] = Pharmacokinetic test in male SD rats, tail vein injection; format: in vivo, rat; conditions: for AUC(0-t) / MRT / clearance / half-life / Vd: rat, plasma, iv, 15 mg/kg tail vein injection; for Vd: read-out: Vdss
# Description: Male SD rats were used as experimental animals in this test. […] LC-MS/MS method was used to test blood drug concentration, and Winnonlin 6.1 software was used to calculate pharmacokinetic parameters to study and evaluate the pharmacokinetic properties.
# 12 male SD rats weighed 180-260 g, purchased from Vital River Laboratory Animal Technology Co., Ltd.
# 0.2 mL blood was collected through jugular vein before dosing and at 5 min, 15 min, 30 min, 1 h, 2 h, 4 h, 8 h, 12 h and 24 h after the dosing, respectively, and put into heparinized tubes. The samples were centrifuged for 10 min at 5500 rpm to separate plasma, and stored at −30° C.
# (§1) An aliquot of 20 μL of plasma sample was added with 200 μL acetonitrile (containing 5.00 ng/mL verapamil and 50.0 ng/mL glibenclamide as internal standards). The mixture was vortexed for 4 min, and then centrifuged at 3700 rpm for 18 min. An aliquot of 70 μL supernatant was added into 70 μL water, and then vortexed for 4 min. Finally, 10 μL of the mixture was injected into the LC-MS/MS system for analysis.
# as §1, with “30” for “20”, “150” for “200”, “5” for “4”
# Winnonlin 6.1 software was used to calculate pharmacokinetic parameters.
# [2] = tested on: lung adenocarcinoma cell line SW-1271; assay: Cell proliferation inhibition assay, SW-1271 (Cell Titer-Glo, 5 days); format: cell-based; conditions: Homo sapiens, SW1271, 120 h; SW-1271, 5 days
# Source text: (§2) This assay was used to study the effect of PARP-1 inhibitor alone for tumor suppression. Breast cancer susceptibility genes BRCA1 and BRCA2 play an important role in homologous recombination DNA repair. BRCA-mutant (or deficient) cells represent homologous recombination repair defect, if PARP-mediated DNA repair is inhibited at the same time, DNA damage in cells may be increased, resulting in chromatin abnormality or even cell death.
# (§3) BRCA-mutant (or deficient) human prostatic cancer cell line DU-145, lung adenocarcinoma cell line SW-1271, as well as breast cancer cell lines MDA-MB-436 and MDA-MB-361 were selected for the assay, PARP inhibitor was used alone to evaluate its damage effect on cells. The inhibition effect of the compound was expressed by IC50.
# (§4) Prostatic cancer cell line DU-145 grown in EMEM supplement with 10% FBS was seeded in 96 well tissue culture plates (2000 cells/well). Lung adenocarcinoma cell line SW-1271 grown in L15 supplement with 10% FBS was seeded in 96 well tissue culture plates (4000 cells/well), and breast cancer cell line MDA-MB-361 grown in L15 supplement with 20% FBS was seeded in 96 well tissue culture plates (4000 cells/well). Test compounds (10 mM stock solution in DMSO) and reference compound staurosporine (1 mM stock solution in DMSO) were diluted by DMSO for 200 times to obtain the desired final concentration. 0.5 ul compound dilutions were directly added to the cells in 96 well plates, and the cells were incubated at 37° C. for 5 days. HPE control wells were added 1 uM staurosporine dilution, while ZPE wells were added 0.5% DMSO. After 5 days plates were equilibrated to room temperature and 50 ul of Cell Titer-Glo Reagent (Promega) was added to the culture wells. The plates were agitated briefly and luminescence signal was measured with Envision (PerkinElmer). […] IC50 values were calculated with Prism software (Graph Pad, San Diego, Calif., USA) for both test compounds and reference compound staurosporine.
# [3] = tested on: prostatic cancer cell line DU-145; assay: Cell proliferation inhibition assay, DU-145 (Cell Titer-Glo, 5 days); format: cell-based; conditions: Homo sapiens, 120 h; DU-145, 5 days
# [4] = tested on: breast cancer cell line MDA-MB-361; assay: Cell proliferation inhibition assay, MDA-MB-361 (Cell Titer-Glo, 5 days); format: cell-based; conditions: Homo sapiens, 120 h; MDA-MB-361, 5 days; read-out: IC50 MD-MBA-361
# Source text: as §2, §3, §4
# [5] = tested on: mice following a two hour occlusion of the MCA; conditions: intracerebroventricular administration; cited from earlier work
# [6] = Solubility test (thermodynamic solubility in pH 7.4 phosphate buffer, HPLC); format: physicochemical
# Description: In this test, excess amount of test sample was added into pH=7.4 phosphate buffer. Ultrasonic was performed for 30 min until the drug no longer dissolved. The solution was continuously shaked for 24 hours at a constant temperature of 25° C. to achieve a thermodynamic equilibrium of compound, and then the solution was filtrated to get filtrate. Quantitative analysis of compound in filtrate using external standard method is performed according to “Appendix VD High Performance Liquid Chromatography, Part II of Pharmacopeia 2010,” and the sample thermohynamic solubility in pH=7.4 phosphate buffer was determined.
# Agilent 1200 LC, Phenomen C18 column (4.6 mm*150 mm, […]), mobile phase: methanol:water (60:40), flow rate: 1 mL/min, column temperature: 25° C., wave length: 230 nm, injection volume: 10 μL
# About 30 mg test compound was put in a 10 mL volumetric flask, about 8 mL pH=7.4 phosphate buffer was added and ultrasonic was performed for 30 min, and the solution was shaked for 24 hours in a shaker at a constant temperature of 25° C. The solution was settled for half an hour under 25° C., filtered with 0.45 μm hydrophilic filter. The filtrate was used as test sample. […]
# The test solution was injected for three times according to the above chromatographic conditions. The peak area was measured to calculate the corresponding concentration. […]
# [7] = tested on: rat model of focal cerebral ischemia; conditions: i.p. 10 mg/kg two hours prior to and two hours after initiation of ischemia; cited from earlier work
smiles,measurement,setting,value
"O=C(c1cc(Cc2n[nH]c(=O)c3ccccc23)ccc1F)N1CCN(C(=O)C2CC2)CC1 [AZD-2281, olaparib]",exposure,[1]; 15 mg/kg i.v.,low exposure
same,metabolic stability,[1]; 15 mg/kg i.v.,poor metabolic stability
same,AUC(0-t),[1],6440 ng·h/mL
same,MRT,[1],19.8 min
same,clearance,[1],39.1 mL/min/kg
same,half-life,[1],40.9 min
same,Vd,[1],0.766 L/kg
same,IC50,[2],17400 nM
same,IC50,[3],65000 nM
same,IC50,[4],> 10000 nM
"NC(=O)c1cccc(N)c1 [Compound 3-AB, 3-aminobenzamide]",decrease in infarct volume,[5],47%
"O=C(c1cc(Oc2n[nH]c(=O)c3ccccc23)ccc1F)N1CCN(C(=O)N2CCCCC2)CC1 [Compound 85, 4-(4-fluoro-3-(4-(piperidine-1-carbonyl)piperazine-1-carbonyl)phenoxy)-2H-phthalazin-1-one]",IC50,[2],1500 nM
same,IC50,[3],3700 nM
same,IC50,[4],2400 nM
"O=C(c1cc(Oc2n[nH]c(=O)c3ccccc23)ccc1F)N1CCN(C(=O)C2CCC(F)(F)CC2)CC1 [Compound 107, 4-(3-(4-(4,4-difluorocyclohexanecarbonyl)piperazine-1-carbonyl)-4-fluorophenoxy)2H-phthalazin-1-one]",IC50,[2],770 nM
same,IC50,[4],1900 nM
"CN(C)C1(C(=O)N2CCN(C(=O)c3cc(Oc4n[nH]c(=O)c5ccccc45)ccc3F)CC2)CC1 [Compound 124, 4-(3-(4-(1-(dimethylamino)cyclopropanecarbonyl)piperazine-1-carbonyl)-4-fluorophenoxy)2H-phthalazin-1-one]",pharmacokinetic properties relative to AZD-2281,[1]; 15 mg/kg i.v.,significantly superior to AZD-2281
same,AUC(0-t),[1],10100 ng·h/mL
same,MRT,[1],22.4 min
same,clearance,[1],28 mL/min/kg
same,half-life,[1],185 min
same,Vd,[1],0.665 L/kg
same,IC50,[2],1600 nM
same,IC50,[3],2700 nM
same,water solubility relative to AZD-2281,[6],enhanced by almost twice
"CN(C)C1(C(=O)N2CCN(C(=O)c3cc(Oc4n[nH]c(=O)c5ccccc45)ccc3F)CC2)CCC1 [Compound 126, 4-(3-(4-(1-(dimethylamino)cyclobutanecarbonyl)piperazine-1-carbonyl)-4-fluorophenoxy)2H-phthalazin-1-one]",IC50,[2],1100 nM
same,IC50,[3],1900 nM
same,IC50,[4],4000 nM
"O=C1NCCc2c(OCCCCN3CCCCC3)cccc21 [DPQ, 3,4-dihydro-5-[4-(1-piperidinyl)butoxy]-1 (2H)-isoquinolinone]",reduction in infarct volume,[7],54%
